Earlier results, collected in PMC4646457 (PLoS ONE, 2015).

Conditions: refractory advanced or metastatic breast cancer; ref ZM2006/00137/00 (EGF100151); cited from earlier work

Question: With CCCCCOC(=O)Nc1nc(=O)n([C@@H]2O[C@H](C)[C@@H](O)[C@H]2O)cc1F [capecitabine] as the compound, how does the “median time to progression” value read?
Answer: The value was 18.6 weeks.
